One data set deals with 3T3s. Particulars: 2D, read-out: Literature IC50, cited from earlier work.
Another data set deals with 3T3s in 2D. In words: MTT assay on 2D monolayers, viability after 72 h. Type of data set: cell-based, murine. Conditions: for MTT IC50 / IC50: 2D, viability at 72 h; for Effect on viability in 2D: MTT. On the procedure:
The MTT assay was performed to compare its endpoint, viability of 3T3s in 2D after 72 h, with spheroid contraction. 3T3s were seeded on 96-well plates (n = 3 per compound concentration) at a concentration of 2.5 × 10^4 cells/well to adhere overnight. The following day, compounds were added to each well at the desired concentration. After 72 hours of incubation, the media was replaced with 10% MTT (Sigma-Aldrich) in media. The cells were incubated with the reagent for at least 4 hours at 37 °C. Following incubation, the media was aspirated and the remaining formazan was dissolved in acidified isopropanol (0.1 N HCl). The absorbance of the solution was then read at 570 nm in a spectrophotometer (SpectraMax Plus 384, Molecular Devices, Sunnyvale, CA) with background subtraction at 690 nm. Dose-response curves were plotted and fit to a Boltzmann sigmoidal function (OriginPro) similarly to the spheroid toxicity assay.
(Tetrazolium assays rely on reduction of a dye to a coloured formazan, in cell work by metabolically active cells.)

For data set [1], the system named is 3T3 spheroids. The data set can be described thus: Spheroid toxicity assay (contraction of magnetically 3D bioprinted spheroids, mobile device imaging). Type of data set: cell-based, murine. On the procedure: The spheroid toxicity assay was designed to rapidly assess toxicity in M3DB spheroids (Fig. 1A)[26]. At 70–80% confluence, 3T3s grown in 2D were statically incubated overnight with magnetic nanoparticles, allowing for nanoparticle association with the cells (NanoShuttle, Nano3D Biosciences, Houston, TX) at a concentration of 1 μL/1 × 10^4 cells (50 pg/cell)[18][25]. Cells were magnetized by the electrostatic and non-specific attachment of nanoparticles to the cell membrane via poly-L-lysine. Once attached onto the membrane, the nanoparticles remain for 7–8 d before releasing into the ECM[18]. If internalized, the nanoparticles will exit the cell still attached to the membrane.
After magnetization, the cells were enzymatically detached with trypsin, resuspended in media, then distributed into ultra-low attachment 6-well plates (Corning, Tewksbury, MA) at a concentration of 3.2 × 10^6 cells in 2 mL (1.6 × 10^6 cells/mL). A magnetic drive of 6 neodymium magnets (Nano3D Biosciences) was placed atop the well plate to levitate the cells in 3D (500 G, 30 pN, see Supplemental Fig. S12). The purpose of this levitation step was to induce ECM formation, as was shown previously with primary human pulmonary fibroblasts and tracheal smooth muscle cells that extruded laminin after 1 h of levitation. […] After 1 h of levitation, the levitated cultures were broken up and resuspended in media using pipette action to yield a suspension of magnetized cells and ECM, which was distributed into an ultra-low attachment 96-well plate (Corning) at a concentration of 7.5 × 10^4 cells/well (n = 3 per compound concentration). Immediately afterwards, the plate was placed atop a magnetic drive of 96 neodymium magnets (0.0625” OD, Nano3D Biosciences) to attract the cells (120 G, 10 pN, see Supplemental Fig. S12) and ECM to the bottom of the well to form a spheroid. These spheroids were printed on the magnets for 15 min. At this point, the cells within the spheroids were connected but loose, and their competency could be empirically assessed by their ability to stay together when the magnet was removed. Towards the end of the printing time, compounds were added to the wells achieve their final concentrations. The plate was then removed from the magnet and the spheroids were allowed to contract.
M3DB spheroids and their contraction were imaged using a mobile device-based imaging system (Fig. 1B)[26]. After printing, the plate of spheroids were placed atop an acrylic imaging apparatus with a mobile device (iPod touch 5th generation, 16 GB, Apple Computer, Cupertino, CA) below the plate facing upwards, and a light source (LightPad A920, Artograph, Delano, MN) above the plate to illuminate the images. The mobile device was programmed using an application (Experimental Assistant, Nano3D Biosciences) to image the plate every 4 min for a period of 10 h. When the spheroids had finished contracting, the images were transferred to a computer where they were analyzed using a custom image analysis code written in Python that processed thousands of images in hours. The area of the spheroid was measured over time, as well as the rate of contraction for the first 150 min using a linear least-squares fit (OriginPro, OriginLab, Northampton, MA). The rates of contraction served as the endpoint for the assay, and were plotted against compound concentration and fit to a Boltzmann sigmoidal function (OriginPro) from which the IC50’s were determined.

Data set [2] concerns 3T3 spheroids. The data set can be described thus: Gene expression profiling (mRNA sequencing) of spheroids with and without ATRA. Particulars: 41.6 μM ATRA.
The test system of data set [3] is 3T3 spheroids. In words: MTT assay on 3T3 spheroids. The class given is cell-based, murine. Conditions: 3D spheroids. The source says:
Figure S7: Dose response curves of 3T3 spheroids exposed to ATRA, SDS, and penicillin-G as measured by the MTT assay.

Where [4] appears, read: ref NIEHS Registry of Cytotoxicity [35].
Setting [5] is: 3D, endpoint rate of contraction over 150 min.
Setting [6] is: Mus musculus, 2.5 h, 3D, endpoint rate of contraction over 150 min.

Here are results for seven compounds from paper PMC4568483, “A spheroid toxicity assay using magnetic 3D bioprinting and real-time mobile device-based imaging” (Scientific Reports, 2015).

Like-named read-outs stand apart in the source and are kept apart here. A value given as a limit tells only on which side of the number the result lay.

As usually defined, the IC50 is the concentration that gives 50% inhibition. Regarding `O=c1[nH]cc(F)c(=O)[nH]1` [5′-fluorouracil], the 50% inhibitory concentration (IC50) in the data set with 3T3s (setting [4]) is 2.6 µM; in the data set on 3T3 spheroids [1] (setting [5]), 253 µM. Besides, the “MTT IC50” value in the data set on 3T3s in 2D was “n.s”. In the data set with 3T3s in 2D (72 h), the “Effect on viability in 2D” value is reported as “no significant effect”.
Consider `CC1=C(/C=C/C(C)=C/C=C/C(C)=C/C(=O)O)C(C)(C)CCC1` [ATRA, all-trans retinoic acid], for which the IC50 in the data set on 3T3s (ref Seiler et al., 2011 [16]) was 20 µM. Also, in the data set on 3T3 spheroids [2], the “Expression of genes for apoptotic inhibitors (BCL2, BIRC2, BIRC3)” value was “downregulation”; the “Expression of the gene for p53” value is “upregulation”; the “Number of genes downregulated as a function of exposure” value was 40 genes. In addition, the “Number of genes expressed differently between exposed and unexposed spheroids” value in the data set on 3T3 spheroids [2] (72 h exposure, 364 genes profiled) worked out at 99 genes. Also, the “Fate of 3T3s in 2D on exposure” value with 3T3s in 2D (2D culture, 41.6 μM ATRA, 72 h) is given as “lysed before 72 h”. In the data set on 3T3s in 2D (Mus musculus), it took 24.7 µM to reach half-maximal inhibition (IC50). For the same compound, the “Dose response of spheroid viability by MTT” value (“Dose response” below) in the data set with 3T3 spheroids [3] is given as “significant dose-dependent response”. In the data set with 3T3 spheroids [1], the “Concentration at and above which spheroid contraction was affected” value is at least 41.6 µM. In the data set on 3T3 spheroids [1] (setting [6]), this compound had an IC50 of 82.8 µM.
For `C[C@@H]1C[C@H]2[C@@H]3CCC4=CC(=O)C=C[C@]4(C)[C@@]3(F)[C@@H](O)C[C@]2(C)[C@@]1(O)C(=O)CO` [Dexamethasone, dexamethasone], the concentration for half-maximal inhibition (IC50) is 0.00277 µM in the data set with 3T3s (ref Nakada et al., 1987 [45]) and 84.6 µM in the data set with 3T3 spheroids [1] (setting [6]). The “MTT IC50” value in the data set on 3T3s in 2D was “n.s”. The “Effect on viability in 2D” value in the data set with 3T3s in 2D (72 h) was “no significant effect”.
For the compound `COc1cccc2c1C(=O)c1c(O)c3c(c(O)c1C2=O)C[C@@](O)(C(=O)CO)C[C@@H]3O[C@H]1C[C@H](N)[C@H](O)[C@H](C)O1` [Doxorubicin, doxorubicin], the IC50 was 0.33 µM in the data set on 3T3s (setting [4]), 12.7 µM in the data set on 3T3s in 2D (Mus musculus) and 46.7 µM in the data set with 3T3 spheroids [1] (setting [6]).
Regarding `C=C[C@@]1(C)CC(=O)[C@]2(O)[C@@]3(C)[C@@H](O)CCC(C)(C)[C@@H]3[C@H](O)[C@H](OC(C)=O)[C@@]2(C)O1` [Forskolin, forskolin], the IC50 is 26 µM in the data set with 3T3s (ref Varrault et al., 1992 [46]); 0.6 µM in the data set on 3T3s in 2D (Mus musculus); 4.7 µM with 3T3 spheroids [1] (setting [6]).
Take `CC1(C)S[C@@H]2[C@H](NC(=O)Cc3ccccc3)C(=O)N2[C@H]1C(=O)O` [Penicillin-G, penicillin-G]: the half-inhibitory concentration (IC50) was 5730 µM in the data set on 3T3s (setting [4]) and 1770 µM in the data set on 3T3s in 2D (Mus musculus). In addition, the “Dose response” value in the data set on 3T3 spheroids [3] is listed as “significant dose-dependent response”. The “Spheroid Assay IC50” value in the data set on 3T3 spheroids [1] (setting [5]) is “n.s”. The “Effect on spheroid contraction” value with 3T3 spheroids [1] (rate of contraction over first 150 min) is “no effect on spheroid contraction”.
With `CCCCCCCCCCCCOS(=O)(=O)[O-].[Na+]` [SDS, sodium dodecyl sulfate], the IC50 in the data set on 3T3s (setting [4]) was 270 µM; in the data set with 3T3s in 2D, 167 µM; in the data set on 3T3 spheroids [1] (setting [5]), 282 µM. Besides, in the data set on 3T3 spheroids [3], the “Dose response” value was “significant dose-dependent response”.
